Measured values reported in ChEMBL document CHEMBL4330150, “Synthesis and biological evaluation of pyrazole linked benzothiazole-β-naphthol derivatives as topoisomerase I inhibitors with DNA binding ability” (Bioorg Med Chem, 2019).
Active and inactive are the calls of the source. No cut-off for these calls is given here.

Key:
MCF7 = assay: Antiproliferative activity against human MCF7 cells after 48 hrs by MTT assay; type: functional, cell-based; conditions: MCF7, 48 h
A549 = assay: Antiproliferative activity against human A549 cells after 48 hrs by MTT assay; type: functional, cell-based; conditions: A549, 48 h
HeLa [1] = assay: Antiproliferative activity against human HeLa cells after 48 hrs by MTT assay; type: functional, cell-based
Calf thymus DNA [2] = assay: Binding affinity to calf thymus DNA assessed as hypochromicity shift at 10 uM by fluorescence spectral analysis; type: nucleic-acid assay; conditions: Bos taurus
HeLa [3] = assay: Cell cycle arrest in human HeLa cells assessed as accumulation at G2/M phase at 2.5 uM after 48 hrs by propidium iodide staining based FACS analysis (reference value: 13.9%); type: functional
HeLa [4] = assay: Cell cycle arrest in human HeLa cells assessed as accumulation at G1 phase at 5 uM after 48 hrs by propidium iodide staining based FACS analysis (reference value: 73.5%); type: functional
Calf thymus DNA [5] = assay: Binding affinity to calf thymus DNA assessed as hypochromicity shift in positive band at DNA to compound ratio of 1:1 by CD spectral analysis; type: nucleic-acid assay; conditions: Bos taurus
HEK293 = assay: Antiproliferative activity against HEK293 cells after 48 hrs by MTT assay; type: cell-based; conditions: Homo sapiens, HEK293, 48 h
HeLa [6] = assay: Cell cycle arrest in human HeLa cells assessed as accumulation at G2/M phase at 5 uM after 48 hrs by propidium iodide staining based FACS analysis (reference value: 13.9%); type: functional
[7] = target: T1, DNA topoisomerase 1 (Homo sapiens) (UniProt P11387); assay: Inhibition of topoisomerase-1 (unknown origin) at 100 uM using pBR322 DNA as substrate after 30 mins by agarose gel electrophoresis method
T1 sequence (whole entry): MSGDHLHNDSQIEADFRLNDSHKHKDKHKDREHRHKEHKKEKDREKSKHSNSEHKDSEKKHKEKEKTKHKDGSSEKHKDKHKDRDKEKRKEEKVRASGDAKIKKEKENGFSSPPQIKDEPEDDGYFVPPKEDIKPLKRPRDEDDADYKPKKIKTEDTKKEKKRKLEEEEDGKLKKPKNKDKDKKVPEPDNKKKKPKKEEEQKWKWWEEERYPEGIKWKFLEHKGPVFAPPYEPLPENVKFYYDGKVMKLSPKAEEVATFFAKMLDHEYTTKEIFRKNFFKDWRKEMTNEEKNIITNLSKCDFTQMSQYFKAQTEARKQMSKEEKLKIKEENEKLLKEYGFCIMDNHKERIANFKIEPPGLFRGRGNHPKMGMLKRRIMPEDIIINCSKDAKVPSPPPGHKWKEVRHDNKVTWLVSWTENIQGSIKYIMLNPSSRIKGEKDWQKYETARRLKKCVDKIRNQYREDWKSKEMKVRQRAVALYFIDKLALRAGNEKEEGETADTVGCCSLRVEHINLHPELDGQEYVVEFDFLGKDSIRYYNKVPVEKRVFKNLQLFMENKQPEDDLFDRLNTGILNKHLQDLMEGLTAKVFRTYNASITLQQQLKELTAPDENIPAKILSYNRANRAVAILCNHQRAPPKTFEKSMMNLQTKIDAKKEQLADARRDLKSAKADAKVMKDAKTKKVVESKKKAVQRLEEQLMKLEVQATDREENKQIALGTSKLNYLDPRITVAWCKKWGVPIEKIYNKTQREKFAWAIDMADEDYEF

Calf thymus DNA [8] = assay: Binding affinity to calf thymus DNA assessed as hypochromicity shift in negative band at DNA to compound ratio of 1:1 to 1:2 by CD spectral analysis; type: nucleic-acid assay; conditions: Bos taurus
Calf thymus DNA [9] = assay: Binding affinity to calf thymus DNA assessed as hypochromicity at 10 uM by UV-Visible spectrophotometric method; type: nucleic-acid assay; conditions: Bos taurus
HeLa [10] = assay: Cell cycle arrest in human HeLa cells assessed as accumulation at G1 phase at 2.5 uM after 48 hrs by propidium iodide staining based FACS analysis (reference value: 73.5%); type: functional
HeLa [11] = assay: Cell cycle arrest in human HeLa cells assessed as accumulation at S phase at 2.5 uM after 48 hrs by propidium iodide staining based FACS analysis (reference value: 5.58%); type: functional
HeLa [12] = assay: Cell cycle arrest in human HeLa cells assessed as accumulation at sub-G1 phase at 5 uM after 48 hrs by propidium iodide staining based FACS analysis (reference value: 1.69%); type: functional
HeLa [13] = assay: Cell cycle arrest in human HeLa cells assessed as accumulation at S phase at 5 uM after 48 hrs by propidium iodide staining based FACS analysis (reference value: 5.58%); type: functional
Calf thymus DNA [14] = assay: Binding affinity to calf thymus DNA assessed as DNA intercalation by measuring increase in viscosity at 15 uM by Ostwald viscometric method; type: nucleic-acid assay; conditions: Bos taurus
HeLa [15] = assay: Cell cycle arrest in human HeLa cells assessed as accumulation at sub-G1 phase at 2.5 uM after 48 hrs by propidium iodide staining based FACS analysis (reference value: 1.69%); type: functional
Calf thymus DNA [16] = assay: Binding affinity to calf thymus DNA assessed as hypochromicity shift in positive band at DNA to compound ratio of 1:2 by CD spectral analysis; type: nucleic-acid assay; conditions: Bos taurus
Calf thymus DNA [17] = assay: Binding affinity to calf thymus DNA assessed as DNA intercalation by measuring increase in viscosity at 5 uM by Ostwald viscometric method; type: nucleic-acid assay; conditions: Bos taurus

Row | SMILES | IC50 (MCF7) [µM] | IC50 (A549) [µM] | IC50 (HeLa [1]) [µM] | further results
1 | O=[N+]([O-])c1ccc(-c2nn(-c3ccccc3)cc2C(Nc2nc3ccc(Cl)cc3s2)c2c(O)ccc3ccccc23)cc1 (centres undefined) | 38.6 | 57.2 | 13.4 | –
2 | O=[N+]([O-])c1cccc(-c2nn(-c3ccccc3)cc2C(Nc2nc3ccccc3s2)c2c(O)ccc3ccccc23)c1 (centres undefined) | 43.9 | 32 | 8.22 | –
3 | Oc1ccc2ccccc2c1C(Nc1nc2ccc(Cl)cc2s1)c1cn(-c2ccccc2)nc1-c1ccc(I)cc1 (centres undefined) | 65 | 29 | 12.1 | –
4 | Oc1ccc2ccccc2c1C(Nc1nc2ccc(Cl)cc2s1)c1cn(-c2ccccc2)nc1-c1ccc(Cl)cc1 (centres undefined) | 27.5 | 54.1 | 36.8 | –
5 | Cc1cc2nc(NC(c3cn(-c4ccccc4)nc3-c3ccc([N+](=O)[O-])cc3)c3c(O)ccc4ccccc34)sc2cc1C (centres undefined) | 41.1 | 41.9 | 14.7 | –
6 | O=[N+]([O-])c1cccc(-c2nn(-c3ccccc3)cc2C(Nc2nc3ccc(Cl)cc3s2)c2c(O)ccc3ccccc23)c1 (centres undefined) | 19.7 | 42.5 | 15.5 | –
7 | COc1cccc(-c2nn(-c3ccccc3)cc2C(Nc2nc3ccc(OC)cc3s2)c2c(O)ccc3ccccc23)c1 (centres undefined) | 62.6 | 88.1 | 10.5 | –
8 | COc1ccc2nc(NC(c3cn(-c4ccccc4)nc3-c3cccc([N+](=O)[O-])c3)c3c(O)ccc4ccccc34)sc2c1 (centres undefined) | 26.8 | 52.1 | 6.14 | –
9 | Oc1ccc2ccccc2c1C(Nc1nc2ccc(Cl)cc2s1)c1cn(-c2ccccc2)nc1-c1ccccc1 (centres undefined) | 36.3 | 51.1 | 12.5 | –
10 | COc1cccc(-c2nn(-c3ccccc3)cc2C(Nc2nc3ccccc3s2)c2c(O)ccc3ccccc23)c1 (centres undefined) | 16.9 | 24.8 | 14.9 | –
11 | COc1ccc2nc(NC(c3cn(-c4ccccc4)nc3-c3cccc(I)c3)c3c(O)ccc4ccccc34)sc2c1 (centres undefined) | 20 | 39.3 | 6.24 | –
12 | Oc1ccc2ccccc2c1C(Nc1nc2ccc(Cl)cc2s1)c1cn(-c2ccccc2)nc1-c1cccc(Cl)c1 (centres undefined) | 17.5 | 33.3 | 18.3 | –
13 | COc1ccc(-c2nn(-c3ccccc3)cc2C(Nc2nc3ccccc3s2)c2c(O)ccc3ccccc23)cc1 (centres undefined) | 17.5 | 26.2 | 9.34 | –
14 | Cc1ccc2nc(NC(c3cn(-c4ccccc4)nc3-c3cccc(Cl)c3)c3c(O)ccc4ccccc34)sc2c1 (centres undefined) | 49.7 | 45.4 | 9.43 | –
15 | Cc1cccc(-c2nn(-c3ccccc3)cc2C(Nc2nc3ccccc3s2)c2c(O)ccc3ccccc23)c1 (centres undefined) | 17.3 | 18.5 | 7.02 | –
16 | CN1CCN(c2ccc3nc(-c4ccc5nc(-c6ccc(O)cc6)[nH]c5c4)[nH]c3c2)CC1 | 48.1 | – | 23.5 | –
17 | COc1ccc(-c2nn(-c3ccccc3)cc2C(Nc2nc3ccc(OC)cc3s2)c2c(O)ccc3ccccc23)cc1 (centres undefined) | 41.8 | 28.1 | 9.24 | –

Row | SMILES | IC50 (MCF7) [µM] | IC50 (A549) [µM] | IC50 (HeLa [1]) [µM] | further results
18 | COc1ccc2nc(NC(c3cn(-c4ccccc4)nc3-c3ccc(F)cc3)c3c(O)ccc4ccccc34)sc2c1 (centres undefined) | 16.9 | 33.6 | 4.63 | Activity (Calf thymus DNA [2]): 507 nm; Activity (HeLa [3]): 25.3%; Activity (HeLa [4]): 60%; Activity (Calf thymus DNA [5]): Active; IC50 (HEK293): 58.1 µM; Activity (HeLa [6]): 28.2%; inhibition [7]: Active; Activity (Calf thymus DNA [8]): Active; Activity (Calf thymus DNA [9]): Active; Activity (HeLa [10]): 57.5%; Activity (HeLa [11]): 11.5%; Activity (HeLa [12]): 3.09%; Activity (HeLa [13]): 5.08%; Activity (Calf thymus DNA [14]): inactive; Activity (HeLa [15]): 2.79%; Activity (Calf thymus DNA [16]): Active
19 | COc1ccc2nc(NC(c3cn(-c4ccccc4)nc3-c3ccc(Cl)cc3)c3c(O)ccc4ccccc34)sc2c1 (centres undefined) | 23.7 | 34.5 | 5.2 | Activity (Calf thymus DNA [2]): 507 nm; Activity (HeLa [3]): 19.9%; Activity (HeLa [4]): 66.5%; Activity (Calf thymus DNA [5]): Active; IC50 (HEK293): 56 µM; Activity (HeLa [6]): 20%; inhibition [7]: Active; Activity (Calf thymus DNA [8]): Active; Activity (Calf thymus DNA [9]): Active; Activity (HeLa [10]): 66.2%; Activity (HeLa [11]): 8.89%; Activity (HeLa [12]): 2.03%; Activity (HeLa [13]): 9.03%; Activity (Calf thymus DNA [14]): inactive; Activity (HeLa [15]): 2.33%; Activity (Calf thymus DNA [16]): Active
20 | CC[n+]1c(-c2ccccc2)c2cc(N)ccc2c2ccc(N)cc21 | – | – | – | Activity (Calf thymus DNA [17]): Active
21 | Cc1ccc2nc(NC(c3cn(-c4ccccc4)nc3-c3cccc([N+](=O)[O-])c3)c3c(O)ccc4ccccc34)sc2c1 (centres undefined) | 38.4 | 57.4 | 7.36 | –
22 | Oc1ccc2ccccc2c1C(Nc1nc2ccccc2s1)c1cn(-c2ccccc2)nc1-c1ccc(I)cc1 (centres undefined) | 18.9 | 23.1 | 6.59 | –
23 | Oc1ccc2ccccc2c1C(Nc1nc2ccccc2s1)c1cn(-c2ccccc2)nc1-c1ccccc1 (centres undefined) | 48.9 | 36.2 | 17.3 | –
24 | COc1ccc2nc(NC(c3cn(-c4ccccc4)nc3-c3ccccc3)c3c(O)ccc4ccccc34)sc2c1 (centres undefined) | 40.8 | 44.6 | 8.29 | –
25 | Cc1ccc(-c2nn(-c3ccccc3)cc2C(Nc2nc3cc(C)c(C)cc3s2)c2c(O)ccc3ccccc23)cc1 (centres undefined) | 22.4 | 31.2 | 17.8 | –
26 | Cc1ccc(-c2nn(-c3ccccc3)cc2C(Nc2nc3ccccc3s2)c2c(O)ccc3ccccc23)cc1 (centres undefined) | 13.1 | 57.4 | 8.05 | –
27 | Cc1ccc2nc(NC(c3cn(-c4ccccc4)nc3-c3ccc([N+](=O)[O-])cc3)c3c(O)ccc4ccccc34)sc2c1 (centres undefined) | 20.7 | 29 | 7.04 | –
28 | COc1ccc2nc(NC(c3cn(-c4ccccc4)nc3-c3ccc([N+](=O)[O-])cc3)c3c(O)ccc4ccccc34)sc2c1 (centres undefined) | 13.3 | 22.5 | 5.54 | Activity (Calf thymus DNA [2]): 337 nm; Activity (Calf thymus DNA [5]): Active; IC50 (HEK293): 46.5 µM; inhibition [7]: Active; Activity (Calf thymus DNA [8]): Active; Activity (Calf thymus DNA [9]): Active; Activity (Calf thymus DNA [14]): inactive; Activity (Calf thymus DNA [16]): Active
29 | O=[N+]([O-])c1ccc(-c2nn(-c3ccccc3)cc2C(Nc2nc3ccccc3s2)c2c(O)ccc3ccccc23)cc1 (centres undefined) | 14.7 | 41.2 | 6.81 | –
30 | COc1cccc(-c2nn(-c3ccccc3)cc2C(Nc2nc3ccc(Cl)cc3s2)c2c(O)ccc3ccccc23)c1 (centres undefined) | 36 | 49.8 | 30 | –
31 | Oc1ccc2ccccc2c1C(Nc1nc2ccccc2s1)c1cn(-c2ccccc2)nc1-c1cccc(Cl)c1 (centres undefined) | 20.7 | 20.4 | 6.83 | –
32 | CN1CCN(c2ccc3[nH]c(-c4ccc5[nH]c(-c6ccc(O)cc6)nc5c4)nc3c2)CC1 | – | – | – | Activity (Calf thymus DNA [17]): inactive
33 | Oc1ccc2ccccc2c1C(Nc1nc2ccc(Cl)cc2s1)c1cn(-c2ccccc2)nc1-c1ccc(F)cc1 (centres undefined) | 21.6 | 32.1 | 30.1 | –
